Measured values reported in ChEMBL document CHEMBL1201862, “PubChem BioAssay data set” (2004).
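96-well plates; 48 h exposure; 5 concentrations. Endpoints by linear interpolation between flanking doses. Not reached: highest tested concentration assigned. Abbreviation: GI50, concentration required for 50% inhibition of growth.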 Active and inactive are the calls of the source. Cut-off read from the data, not from the text of the source: active = GI50 up to about 1.1 µM and inactive = higher.

What was measured:
Assay in all cases: DTP human tumour cell line panel, 48 h
HCT-15 = system: HCT-15
SNB-19 = system: SNB-19
UACC-62 = system: UACC-62
SK-OV-3 = system: SK-OV-3
SF-295 = system: SF-295
Malme-3M = system: Malme-3M
ACHN = system: ACHN
MDA-MB-231 = system: MDA-MB-231
UACC-257 = system: UACC-257
A498 = system: A498
Hs-578T = system: Hs-578T
SW-620 = system: SW-620
RPMI-8226 = system: RPMI-8226
KM12 = system: KM12
SN12C = system: SN12C
NCI/ADR-RES = system: NCI/ADR-RES
T47D = system: T47D
MDA-MB-435 = system: MDA-MB-435
BT-549 = system: BT-549
RXF 393 = system: RXF 393

Row | SMILES | GI50 (HCT-15) [µM] | GI50 (SNB-19) | GI50 (UACC-62) | GI50 (SK-OV-3) | GI50 (SF-295) | GI50 (Malme-3M) | GI50 (ACHN) | GI50 (MDA-MB-231) | GI50 (UACC-257) | GI50 (A498) | GI50 (Hs-578T) | GI50 (SW-620) | GI50 (RPMI-8226) | GI50 (KM12) | GI50 (SN12C) | GI50 (NCI/ADR-RES) | GI50 (T47D) | GI50 (MDA-MB-435) | GI50 (BT-549) | GI50 (RXF 393)
1 | CC(=O)OCC1OC(OCCCOP(=O)(OCCC#N)OCC2OC(n3cnc4c(N)ncnc43)C(OC(=O)c3ccccc3)C2OC(=O)c2ccccc2)C(OC(C)=O)C(OC(C)=O)C1OC(C)=O (stereo not given) | > 100 | > 100 µM (inactive) | > 100 µM (inactive) | > 100 µM (inactive) | > 100 µM (inactive) | 1.06 µM (active) | > 100 µM (inactive) | > 100 µM (inactive) | > 100 µM (inactive) | > 100 µM (inactive) | 28.7 µM (inactive) | > 100 µM (inactive) | > 64.1 µM (inactive) | > 100 µM (inactive) | > 100 µM (inactive) | > 100 µM (inactive) | > 100 µM (inactive) | > 100 µM (inactive) | > 100 µM (inactive) | > 100 µM (inactive)
2 | CCNc1ccc2c(c1)C(=O)N(OS(C)(=O)=O)C2=O | 36.1 | > 100 µM (inactive) | > 100 µM (inactive) | > 100 µM (inactive) | > 100 µM (inactive) | 30.3 µM (inactive) | 37.7 µM (inactive) | > 100 µM (inactive) | > 100 µM (inactive) | > 100 µM (inactive) | > 100 µM (inactive) | 37.6 µM (inactive) | 31.9 µM (inactive) | > 100 µM (inactive) | > 100 µM (inactive) | > 100 µM (inactive) | > 100 µM (inactive) | > 100 µM (inactive) | 71.4 µM (inactive) | 32.4 µM (inactive)
3 | O=C(O)CSSCC(=O)O | > 100 | > 100 µM (inactive) | > 100 µM (inactive) | > 100 µM (inactive) | > 100 µM (inactive) | > 100 µM (inactive) | > 100 µM (inactive) | > 100 µM (inactive) | > 100 µM (inactive) | > 100 µM (inactive) | > 100 µM (inactive) | > 100 µM (inactive) | > 100 µM (inactive) | > 100 µM (inactive) | > 100 µM (inactive) | > 100 µM (inactive) | > 100 µM (inactive) | > 100 µM (inactive) | > 100 µM (inactive) | > 100 µM (inactive)
4 | CS(=O)(=O)N1CC(CCl)c2ccc([N+](=O)[O-])cc21 (stereo not given) | > 100 | > 100 µM (inactive) | > 100 µM (inactive) | > 100 µM (inactive) | > 100 µM (inactive) | > 100 µM (inactive) | > 100 µM (inactive) | > 100 µM (inactive) | > 100 µM (inactive) | > 100 µM (inactive) | 70.1 µM (inactive) | > 100 µM (inactive) | > 100 µM (inactive) | > 100 µM (inactive) | > 100 µM (inactive) | > 100 µM (inactive) | > 100 µM (inactive) | > 100 µM (inactive) | > 100 µM (inactive) | > 100 µM (inactive)
5 | NS(=O)(=O)c1nnc(NS(=O)(=O)c2ccc(Cl)cc2)s1 | > 100 | > 100 µM (inactive) | > 100 µM (inactive) | > 100 µM (inactive) | > 100 µM (inactive) | > 100 µM (inactive) | > 100 µM (inactive) | > 100 µM (inactive) | > 100 µM (inactive) | > 100 µM (inactive) | > 100 µM (inactive) | > 100 µM (inactive) | > 100 µM (inactive) | > 100 µM (inactive) | > 100 µM (inactive) | > 100 µM (inactive) | > 100 µM (inactive) | > 100 µM (inactive) | > 100 µM (inactive) | > 100 µM (inactive)
6 | O=C1C(CN2CCCC2)CCC1CN1CCCC1 (stereo not given) | 17.7 | > 100 µM (inactive) | 17.5 µM (inactive) | > 100 µM (inactive) | > 100 µM (inactive) | 15.1 µM (inactive) | 15.8 µM (inactive) | 13.5 µM (inactive) | 16.8 µM (inactive) | > 100 µM (inactive) | 22.3 µM (inactive) | 4.12 µM (inactive) | 3.59 µM (inactive) | > 100 µM (inactive) | 26.7 µM (inactive) | 23.9 µM (inactive) | 17.4 µM (inactive) | 17.6 µM (inactive) | 17.5 µM (inactive) | 20.4 µM (inactive)
7 | CCN(CC)CCCNc1ccc2nnn3c4ccc(O)cc4c(=O)c1c23 | 5.06 | 10.1 µM (inactive) | 16.6 µM (inactive) | 8.87 µM (inactive) | 9.51 µM (inactive) | 13.1 µM (inactive) | 3.34 µM (inactive) | 7.74 µM (inactive) | 17.9 µM (inactive) | 8.97 µM (inactive) | 14.4 µM (inactive) | 2.69 µM (inactive) | 3.28 µM (inactive) | 6.61 µM (inactive) | 5.57 µM (inactive) | 7.14 µM (inactive) | 22.3 µM (inactive) | 10.2 µM (inactive) | 14 µM (inactive) | 1.64 µM (inactive)
8 | Cc1ccc2nc(/C=N/c3ccccc3Cl)cc(C)c2c1 | 18.4 | 30.2 µM (inactive) | 14.6 µM (inactive) | 27.4 µM (inactive) | 21.9 µM (inactive) | 20.8 µM (inactive) | 30.7 µM (inactive) | 13.2 µM (inactive) | 15.8 µM (inactive) | > 100 µM (inactive) | 25.5 µM (inactive) | 13.1 µM (inactive) | 8.75 µM (inactive) | 17.4 µM (inactive) | 12.2 µM (inactive) | 16.8 µM (inactive) | 22.4 µM (inactive) | 12.7 µM (inactive) | 16.1 µM (inactive) | 14.5 µM (inactive)
9 | CC(=O)c1cc2c(s1)C(=O)c1ccccc1C2=O | 0.61 | 0.424 µM (active) | 2.51 µM (inactive) | 15.3 µM (inactive) | 2.79 µM (inactive) | 1.28 µM (inactive) | 1.36 µM (inactive) | 3.13 µM (inactive) | 1.57 µM (inactive) | 29.3 µM (inactive) | 2.84 µM (inactive) | 0.951 µM (active) | 2.38 µM (inactive) | 2.04 µM (inactive) | 2.59 µM (inactive) | 1.89 µM (inactive) | 4.42 µM (inactive) | 0.791 µM (active) | 1.62 µM (inactive) | 8.18 µM (inactive)
10 | C/C(=C\COc1cc(O)c2c(c1)C(=O)c1cc(C)cc(O)c1C2=O)CCC1OC1(C)C (stereo not given) | 84.3 | > 100 µM (inactive) | 40.3 µM (inactive) | > 100 µM (inactive) | > 100 µM (inactive) | > 100 µM (inactive) | 40.9 µM (inactive) | > 100 µM (inactive) | > 100 µM (inactive) | > 100 µM (inactive) | 24.1 µM (inactive) | > 10 µM (inactive) | 93.8 µM (inactive) | > 100 µM (inactive) | > 100 µM (inactive) | > 100 µM (inactive) | 49.4 µM (inactive) | > 100 µM (inactive) | 26.7 µM (inactive) | 30.2 µM (inactive)
